Measured values as given in PubChem BioAssay (NCI).
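Each compound was tested at five concentrations against cells in 96-well plates for 48 hours. GI50 marks 50% less growth. TGI is the concentration that stops growth completely.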

What was measured:
Test in all cases: DTP human tumour cell line panel, 48 h
[1] = system: MOLT-4 leukemia
[2] = system: UO-31 renal
[3] = system: LOX IMVI melanoma
[4] = system: ACHN renal
[5] = system: CAKI-1 renal
[6] = system: EKVX NSCLC
[7] = system: M19-MEL melanoma
[8] = system: DLD-1 colon
[9] = system: OVCAR-5 ovarian
[10] = system: M14 melanoma

Row | Compound | GI50 [1] | TGI [1] | GI50 [2] | TGI [2] | GI50 [3] | TGI [3] | GI50 [4] | TGI [4] | GI50 [5] | TGI [5] | GI50 [6] | TGI [6] | GI50 [7] | TGI [7] | GI50 [8] | TGI [8] | GI50 [9] | TGI [9] | GI50 [10] | TGI [10]
1 | O=C1C(=c2ccc(=C3C(=O)c4ccc([N+](=O)[O-])cc4[N+]3=O)cc2)N([O-])c2cc([N+](=O)[O-])ccc21 | > 100 µM | > 100 µM | > 100 µM | > 100 µM | > 100 µM | > 100 µM | > 100 µM | > 100 µM | > 100 µM | > 100 µM | > 100 µM | > 100 µM | > 100 µM | > 100 µM | > 100 µM | > 100 µM | > 100 µM | > 100 µM | > 100 µM | > 100 µM
2 | NC1N=Nc2ccccc21 (configuration not stated) |  | > 100 µM |  | > 100 µM |  | > 100 µM |  | > 100 µM |  | > 100 µM |  | > 100 µM |  | > 100 µM |  | > 100 µM |  | > 100 µM |  | > 100 µM
3 | COc1cccc(C=O)c1C(=O)c1cc(O)ccc1O |  | 27.5 µM |  | 33.6 µM |  | > 74 µM |  | 31.1 µM |  | > 57.4 µM |  | 37.9 µM |  | 79.8 µM |  | 30.3 µM |  | > 100 µM |  | 35 µM
4 | C/C(CCn1[nH]c(=O)ccc1=O)=N\NC(=O)C(N)=O |  |  |  | > 100 µM |  | > 100 µM |  | > 100 µM |  | > 100 µM |  | > 100 µM |  | > 100 µM |  | > 100 µM |  | > 100 µM |  | > 100 µM
5 | O=C(CCC(=O)Nc1ccc(Cl)c(Cl)c1)CC(=O)c1ccc2ccccc2c1 |  | > 100 µM |  | > 100 µM |  | > 100 µM |  | > 100 µM |  | > 100 µM |  | > 100 µM |  | > 100 µM |  | > 100 µM |  | > 100 µM |  | > 100 µM
6 | CC1CCC2C(C)C(=O)OC3OC4(C)CCC1C32OO4 (configuration not stated) |  | > 100 µM |  | > 100 µM |  | > 100 µM | > 100 µM | > 100 µM |  | > 100 µM |  | > 100 µM |  | > 100 µM |  |  | > 100 µM | > 100 µM |  | > 100 µM
7 | O=C(C=Nc1ccccc1C(=O)[O-])c1cccs1.O=C(C=Nc1ccccc1C(=O)[O-])c1cccs1.[Ni+2] |  | > 100 µM |  | > 100 µM |  | > 100 µM |  | > 100 µM |  | > 100 µM |  |  | 31.1 µM | > 100 µM |  |  |  | > 100 µM |  | > 100 µM
8 | O=[N+]([O-])c1cc(-c2nc(=S)[nH][nH]2)ccc1O |  |  |  | > 100 µM |  | > 100 µM |  | > 100 µM |  | > 100 µM |  | > 100 µM |  | > 100 µM |  | > 100 µM |  | > 100 µM |  | > 100 µM
9 | O=C(O)CN(c1ccccc1)S(=O)(=O)c1cccc([N+](=O)[O-])c1 |  | > 100 µM |  | > 100 µM |  | > 100 µM |  | > 100 µM |  | > 100 µM |  | > 100 µM |  | > 100 µM |  | > 100 µM |  | > 100 µM |  | > 100 µM
10 | Nc1nc(N)c(CCCCc2ccccc2)c(C=O)n1 |  |  |  | 45.4 µM |  | 32.8 µM |  | 51.6 µM |  | > 100 µM |  | 46.4 µM |  | 29.5 µM |  | 46.2 µM |  | > 100 µM |  | 44.1 µM
11 | COC(=O)[C@H]1COC(=S)N1C(=O)[C@@H](C)[C@H](O)C(C)C |  | > 100 µM |  | > 100 µM |  | > 100 µM |  | > 100 µM |  | > 100 µM |  | > 100 µM |  | > 100 µM |  | > 100 µM |  | > 100 µM |  | > 100 µM
12 | N#CC1C[C@@H]2CC3(CCC2CN1C(=O)c1ccccc1)OCCO3 (some centres not stated) |  | > 100 µM |  | > 100 µM |  | > 100 µM |  | > 100 µM | > 100 µM | > 100 µM |  | > 100 µM |  | > 100 µM |  | > 100 µM |  | > 100 µM |  | > 100 µM
13 | COc1cc2c(cc1OC)C(C#N)N(C(=O)c1ccccc1)C=C2OC(=O)c1ccccc1 (configuration not stated) |  | > 100 µM |  | 39.3 µM |  | > 100 µM |  | 43.6 µM |  |  |  | 71.9 µM |  | 90.5 µM |  | > 100 µM |  | > 100 µM |  | > 100 µM
14 | COc1ccc2c(c1)[n+]([O-])c(-c1cccc(Cl)c1)c(N)[n+]2[O-] |  | > 100 µM |  | > 100 µM |  |  |  | > 100 µM |  | > 100 µM |  | > 100 µM |  | > 100 µM |  | > 100 µM |  | > 100 µM |  | 
15 | Cc1cc(=O)[nH]c(CNC(=O)c2ccc3ccccc3c2)n1 |  | > 100 µM |  | > 100 µM |  | > 100 µM |  | > 100 µM |  | > 100 µM |  | > 100 µM |  | > 100 µM |  | > 100 µM |  | > 100 µM |  | > 100 µM
16 | COc1ccc(Nc2nc3cc(C(F)(F)F)ccc3nc2-c2ccccc2)cc1OC |  | > 100 µM |  | > 100 µM |  | > 100 µM |  | > 100 µM |  | 68.8 µM |  | 71.2 µM |  |  |  | > 100 µM |  | > 100 µM |  | > 100 µM
17 | COC(=O)C1CSC(c2csc(CCN)n2)=N1 (configuration not stated) |  | > 100 µM |  | > 100 µM |  | > 100 µM |  | > 100 µM |  | > 100 µM |  | > 100 µM |  | > 100 µM |  |  |  | > 100 µM |  | > 100 µM
18 | O=C(COc1ccccc1Cl)N1N=C(c2ccccc2)CC1(O)c1ccccc1 (configuration not stated) |  | 58.8 µM |  | 35.9 µM |  | 30.4 µM |  | 55.7 µM |  | 91.8 µM |  |  |  | 41.6 µM |  | 53.7 µM |  | 33.5 µM |  | 31.9 µM
19 | COc1cc(OC)cc(Oc2cnc3cc(N)cc(N)c3n2)c1 | 5.37 µM | 20.7 µM | 22.3 µM | 46.8 µM | 11.5 µM | 24 µM | 15.8 µM | 33.3 µM | 13 µM | 27.7 µM | 18.5 µM | 46.2 µM |  |  |  |  | 15.5 µM | 30.4 µM | 13.4 µM | 26.8 µM
20 | CN1CCN(C(=O)[C@@]2(C)CC[C@]3(C)CC[C@]4(C)C(=CC[C@@H]5[C@@]6(C)CCC(=O)NC(C)(C)[C@@H]6CC[C@]54C)[C@@H]3C2)CC1 | 1.52 µM | 3.66 µM | 1.19 µM | 2.51 µM | 1.46 µM | 2.84 µM | 1.99 µM | 4.11 µM | 2.36 µM | 6.48 µM | 2.74 µM | 12.8 µM |  |  |  |  | 1.65 µM | 3.17 µM | 1.69 µM | 3.38 µM
21 | N/C=N/S(=O)(=O)c1ccc(NC(=O)COC(=O)c2cccc3c(=O)c4ccccc4[nH]c23)cc1 |  | > 100 µM |  | > 100 µM |  | > 100 µM |  | > 100 µM |  |  |  | > 100 µM |  | > 100 µM |  | > 100 µM |  |  |  | > 100 µM
